Experimental data from ChEMBL document CHEMBL4340552, “Identification of BMI1 promoter inhibitors from Streptomyces sp. IFM-11958” (Bioorg Med Chem, 2019).

Tests used:
Huh-7 [1] = assay: Inhibition of sphere formation in human HuH7 cells incubated for 72 hrs by sphere forming assay; assay type: functional, cell-based
[2] = Inhibition of BMI1 promoter in HEK293T cells incubated for 24 hrs by luciferase reporter gene assay; assay type: cell-based; conditions: Homo sapiens, HEK-293T
DU-145 [3] = assay: Cytotoxicity against human DU145 cells assessed as reduction in cell viability incubated for 24 hrs by FMCA method; assay type: functional, cell-based; conditions: DU-145, 24 h
Huh-7 [4] = assay: Cytotoxicity against human HuH7 cells assessed as reduction in cell viability incubated for 24 hrs by FMCA method; assay type: functional, cell-based; conditions: Huh-7, 24 h
HEK293 = assay: Cytotoxicity against HEK293 cells assessed as reduction in cell viability incubated for 24 hrs by FMCA method; assay type: cell-based; conditions: Homo sapiens, HEK293, 24 h
DU-145 [5] = assay: Down-regulation of BMI1 protein expression in human DU145 cells incubated for 24 hrs by Western blot analysis; assay type: functional, cell-based
DU-145 [6] = assay: Down-regulation of c-Myc protein expression in human DU145 cells incubated for 24 hrs by Western blot analysis; assay type: functional, cell-based
DU-145 [7] = assay: Down-regulation of BMI1 mRNA expression in human DU145 cells incubated for 24 hrs by Quantitative RT-PCR analysis; assay type: functional, cell-based
DU-145 [8] = assay: Up-regulation of p16Ink4a mRNA expression in human DU145 cells incubated for 24 hrs by Quantitative RT-PCR analysis; assay type: functional, cell-based

Row | SMILES | inhibition (Huh-7 [1]) | IC50 [2] [nM] | IC50 (DU-145 [3]) [nM] | IC50 (Huh-7 [4]) [nM] | IC50 (HEK293) [nM] | inhibition (DU-145 [5]) | inhibition (DU-145 [6]) | Activity (DU-145 [7]) | Activity (DU-145 [8])
1 | CC[C@@H]1[C@@H](C)O[C@@](O)([C@@H](C)[C@H](O)[C@H](C)[C@H]2OC(=O)/C=C/C=C/[C@H](C)[C@@H]([C@@H](C)[C@@H](O)[C@H](C)[C@@]3(O)C[C@@H](O[C@H]4C[C@H](O)[C@H](O)[C@H](C)O4)[C@H](CC)[C@@H](C)O3)OC(=O)/C=C/C=C/[C@@H]2C)C[C@H]1O[C@H]1C[C@H](O)[C@H](O)[C@H](C)O1 | Dose-dependent effect | 30 | 31 | 4.2 | 200 | Dose-dependent effect | Dose-dependent effect | Dose-dependent effect | Dose-dependent effect
2 | CC[C@@H]1[C@@H](C)O[C@@](O)([C@@H](C)[C@H](O)[C@H](C)[C@H]2OC(=O)/C=C/C=C/[C@H](C)[C@@H]([C@@H](C)[C@@H](O)[C@H](C)[C@@]3(O)C[C@@H](O[C@H]4C[C@H](O)[C@H](O)[C@H](C)O4)[C@H](CC)[C@@H](C)O3)OC(=O)/C(C)=C/C=C/[C@@H]2C)C[C@H]1O[C@H]1C[C@H](O)[C@H](O)[C@H](C)O1 |  | 447 |  |  |  |  |  |  | 
3 | O=C1CCC(=O)N(O)CCCCCNC(=O)CCC(=O)N(O)CCCCCNC(=O)CCC(=O)N(O)CCCCCN1 [NOCARDAMINE] |  | 22000 |  |  |  |  |  |  | 
